Experimental data from paper PMC12372887, “Mechanism and cellular actions of the potent AMPK inhibitor BAY-3827” (Science Advances, 2025).

Tested on: HEK293 cells
Assay: RSK signaling immunoblot in HEK293 cells
Assay type: cell-based, human
Experimental: HEK293 cells (Invitrogen, R75007) were seeded at a density of 500,000 cells per well in six-well cell culture plates (Corning Incorporated Costar #3516) in Dulbecco’s modified Eagle medium (DMEM) high-glucose + GlutaMAX Supplement, pyruvate (Thermo Fisher Scientific, catalog no. 31966-021) containing penicillin G (100 U/ml), streptomycin (100 μg/ml), and 10% (v/v) FBS. Once attached, the next day, the media were changed to serum-free and the cells were starved for 16 hours followed by compound treatment with BAY-3827, BI-D1870 (MedChemExpress, #HY-10510) ± 10 μM MK-2206 dihydrochloride (MedChemExpress, #HY-10358) with 30 min incubation at 37°C followed by coincubation with […] (MedChemExpress, #HY-18739) or vehicle for additional 30 min with final assay DMSO concentration of 0.13%. All cell lines used here were tested monthly for mycoplasma and tested negative.
Following compound treatment, the cells were washed with room temperature PBS and lysed on ice with the addition of lysis buffer [50 mM tris-HCl (pH 7.5), 150 mM NaCl, 1 mM EDTA, 1 mM EGTA, 0.27 M sucrose, 1% w/v Triton X-100, 20 mM glycerol-2 phosphate disodium, 50 mM NaF, and 5 mM Na4P2O7.10 H2O] containing proteases and phosphatase inhibitors [0.5 mM phenylmethylsulfonyl fluoride (PMSF), 1 mM benzamidine HCl, leupeptin (1 μg/ml), pepstatin A (1 μg/ml), 1 μM microcystin-LR, 1 mM Na3VO4, and 1 mM DTT]. Lysates were centrifuged at 10,000g, 4°C for 10 min, and protein concentration of the supernatant was determined with the Pierce Bradford Protein Assay Kit (Thermo Fisher Scientific, #23200) and read on the Hidex Plate Reader (software version 0.5.64.0). Samples were prepared in Laemmli sample buffer (tris 200 mM, 8% SDS, EDTA 2 mM, and 40% glycerol) supplemented with 10% DTT and boiled for 5 min at 100°C. Ten micrograms of protein per sample was run on a Criterion tris-glycine polyacrylamide gel (Bio-Rad, #5678095) and transferred to a nitrocellulose membrane. For cell signaling experiments in HEK293 cells, the samples were run on a Criterion TGX stain-free precast gel (Bio-Rad, catalog no. 5678085) with transfer to a polyvinylidene difluoride membrane performed in Bio-Rad Criterion blotter (#1704071) using tris-glycine transfer buffer (Bio-Rad, #1610734) following the manufacturer’s instructions. The membranes were probed at 4°C overnight in a 4% BSA TBS-T solution containing 0.02% sodium azide with the following antibodies where appropriate: Phospho-ACC (Ser^79) (1:1000, Cell Signaling Technology, #3661S), ACC (C83B10) (1:1000, Cell Signaling Technology, #3676S), phospho-Raptor (Ser^792) (1:1000, Cell Signaling Technology, #2083S), Raptor (24C12) (1:1000, Cell Signaling Technology, #2280S), GSK3αβ (1:2000, Sigma-Aldrich, #04-903), phospho-GSK3αβ (Ser^21/9) (D17D2) (1:1000, Cell Signaling Technology, #8566S), ERK1/2 (137F5) (1:1000, Cell Signaling Technology, #4695), phospho-ERK1/2 (Thr^202/Tyr^204) (D13.14.4E) (1:1000, Cell Signaling Technology, #4370), phospho-AMPKα (Thr^172) (40H9) (1:1000, Cell Signaling Technology, #2535S), AMPKα (1:1000, Cell Signaling Technology, #2532S), anti–glyceraldehyde-3-phosphate dehydrogenase antibody (1:5000, Cell Signaling Technology, #G8795), and vinculin (1:1000, Cell Signaling Technology, #13901). Membranes were scanned using the Odyssey Fc LiCor system (exposure time, 30 s) with densitometry analysis performed using LiCor Image Studio Lite normalizing to control loading protein. Figures were made using GraphPad Prism v10.

**Q.** CCc1ccccc1C(=O)Nc1n[nH]c2c(C)c(F)c(C3C(C#N)=C(C)N(C)C(C)=C3C#N)cc12 [BAY-3827, N-[5-(3,5-dicyano-1,2,6-trimethyl-4H-pyridin-4-yl)-6-fluoro-7-methyl-1H-indazol-3-yl]-2-ethylbenzamide] was tested. Which “PMA-stimulated pGSK3αβ (surrogate of RSK activity)” value (10 μM, in the presence of MK-2206 (10 μM)) did it give?
**A.** inhibited to the same extent

**Q.** And the ACC1 phosphorylation (serum-starved HEK293, 1 and 10 μM)?
**A.** dose-dependent reduction
